The target of assay [1] is purified human Factor XIa (Homo sapiens (Human), UniProt P03951). Nature of the assay: Factor XIa Assay. It counts as biochemical. The conditions noted are these: purified human Factor XIa 40 pM, substrate Z-Gly-Pro-Arg-AFC, pH 7.4; read-out: FXIa IC50. How it is done:
The effectiveness of a compound of the present invention as an inhibitor of Coagulation Factor XIa can be determined using a relevant purified serine protease, and an appropriate synthetic substrate. The rate of hydrolysis of the chromogenic or fluorogenic substrate by the relevant serine protease was measured both in the absence and presence of compounds of the present invention. Assays were conducted at room temperature or at 37° C. […] A decrease in the rate of fluorescence change in the presence of inhibitor is indicative of enzyme inhibition. Such methods are known to one skilled in the art. […]
Factor XIa determinations were made in 50 mM HEPES buffer at pH 7.4 containing 150 mM NaCl, 5 mM CaCl2, and 0.1% PEG 8000 (polyethylene glycol; JT Baker or Fisher Scientific). Determinations were made using purified human Factor XIa at a final concentration of 40 pM (Sekisui Diagnostics) and he synthetic substrate, Z-Gly-Pro-Arg-AFC, TFA salt (Sigma #C0980) at a concentration of 100 µM.
Activity assays were performed by diluting a stock solution of substrate at least tenfold to a final concentration ≦0.1 Km into a solution containing enzyme or enzyme equilibrated with inhibitor. Times required to achieve equilibration between enzyme and inhibitor were determined in control experiments. Initial velocities of product formation in the absence (Vo) or presence of inhibitor (Vi) were measured. Assuming competitive inhibition, and that unity is negligible compared Km/[S], [I]/e, and [I]/e (where [S], [I], and e respectively represent the total concentrations, of substrate, inhibitor and enzyme), the equilibrium constant (Ki) for dissociation of the inhibitor from the enzyme can be obtained from the dependence of Vo/Vi on [I] shown in the following equation.

The target of assay [2] is purified Human plasma kallikrein (Homo sapiens (Human), UniProt P03952). As to the kind of experiment: Kallikrein Assay. The class given is biochemical. The conditions noted are these: purified Human plasma kallikrein 0.5 nM, substrate Acetyl-K-P-R-AFC, pH 7.4; read-out: P. KLK IC50. As to the method:
The effectiveness of a compound of the present invention as an inhibitor of Kallikrein can be determined using a relevant purified serine protease, and an appropriate synthetic substrate. The rate of hydrolysis of the chromogenic or fluorogenic substrate by the relevant serine protease was measured both in the absence and presence of compounds of the present invention. Assays were conducted at room temperature or at 37° C. […] A decrease in the rate of fluorescence change in the presence of inhibitor is indicative of enzyme inhibition. Such methods are known to one skilled in the art. The results of this assay are expressed as the inhibitory constant, Ki.
Kallikrein determinations were made in 50 mM HEPES buffer at pH 7.4 containing 150 mM NaCl, 5 mM CaCl2, and 0.1% PEG 8000 (polyethylene glycol; Fisher Scientific). Determinations were made using purified Human plasma kallikrein at a final concentration of 0.5 nM (Enzyme Research Laboratories) and the synthetic substrate, Acetyl-K-P-R-AFC (Sigma # C6608) at a concentration of […].
Activity assays were performed by diluting a stock solution of substrate at least tenfold to a final concentration ≦0.2 Km into a solution containing enzyme or enzyme equilibrated with inhibitor. Times required to achieve equilibration between enzyme and inhibitor were determined in control experiments. The reactions were performed under linear progress curve conditions and fluorescence increase measured at 405 Ex/510 Em nm. Values were converted to percent inhibition of the control reaction (after subtracting 100% Inhibition value). IC50 was determined by inflection point from a four parameter logistic curve fit. Ki was calculated using the Cheng Prusoff equation, Ki=IC50/(1+([S]/Km)).

19 molecules from patent US9783530B2, “Factor Xla inhibitors” (Merck Sharp & Dohme Corp., priority 2014, dated 2017) can be followed below.

The structures appear in SMILES notation.

purified human Factor XIa, sequence (P03951 388-625): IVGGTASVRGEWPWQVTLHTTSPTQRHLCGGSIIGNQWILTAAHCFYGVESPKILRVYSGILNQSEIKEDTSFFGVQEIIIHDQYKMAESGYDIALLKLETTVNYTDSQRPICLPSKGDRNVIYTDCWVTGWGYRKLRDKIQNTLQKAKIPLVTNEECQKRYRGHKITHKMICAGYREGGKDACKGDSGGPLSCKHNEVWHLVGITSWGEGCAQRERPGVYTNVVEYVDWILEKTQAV
purified human Factor XIa, sequence (P03951 19-387 partner): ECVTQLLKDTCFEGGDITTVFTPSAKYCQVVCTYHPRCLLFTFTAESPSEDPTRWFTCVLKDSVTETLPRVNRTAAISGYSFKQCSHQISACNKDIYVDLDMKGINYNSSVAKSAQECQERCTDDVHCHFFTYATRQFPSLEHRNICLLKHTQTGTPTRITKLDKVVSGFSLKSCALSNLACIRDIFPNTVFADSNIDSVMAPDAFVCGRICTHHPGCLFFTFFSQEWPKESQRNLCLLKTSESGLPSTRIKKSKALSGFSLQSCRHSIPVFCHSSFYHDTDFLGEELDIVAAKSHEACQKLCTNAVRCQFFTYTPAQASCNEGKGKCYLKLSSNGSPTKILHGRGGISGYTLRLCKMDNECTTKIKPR
purified Human plasma kallikrein, sequence (P03952 391-638): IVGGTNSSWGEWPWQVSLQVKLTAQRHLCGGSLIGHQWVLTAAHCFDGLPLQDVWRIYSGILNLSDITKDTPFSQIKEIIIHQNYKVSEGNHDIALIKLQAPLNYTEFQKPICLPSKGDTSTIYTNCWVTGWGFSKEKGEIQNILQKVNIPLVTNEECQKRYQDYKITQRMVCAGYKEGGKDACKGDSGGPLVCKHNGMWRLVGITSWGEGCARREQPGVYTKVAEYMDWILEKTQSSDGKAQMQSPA
purified Human plasma kallikrein, sequence (P03952 20-390 partner): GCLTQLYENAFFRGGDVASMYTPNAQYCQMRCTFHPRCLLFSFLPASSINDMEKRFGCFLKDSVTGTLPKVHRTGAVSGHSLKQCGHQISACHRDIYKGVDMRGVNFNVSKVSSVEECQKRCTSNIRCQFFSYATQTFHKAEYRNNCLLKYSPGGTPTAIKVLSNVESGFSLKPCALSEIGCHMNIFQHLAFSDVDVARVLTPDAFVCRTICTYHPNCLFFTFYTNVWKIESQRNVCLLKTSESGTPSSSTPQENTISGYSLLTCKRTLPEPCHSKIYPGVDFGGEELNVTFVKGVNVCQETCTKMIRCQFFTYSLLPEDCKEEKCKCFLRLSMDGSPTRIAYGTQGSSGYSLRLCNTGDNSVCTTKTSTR

What is called IC50 is the point on the concentration scale where inhibition reaches its midpoint. Regarding `O=C(O)c1ccc(NC(=O)[C@@H](CC2CC2)c2ccc(-c3cc(Cl)ccc3-n3cnnn3)c[n+]2[O-])cc1` [Example 28, 4-{[(2S)-2-{5-[5-chloro-2-(1H-tetrazol-1-yl)phenyl]-1-oxidopyridin-2-yl}-3-cyclopropylpropanoyl]amino}benzoic acid], the IC50 in assay [1] turned out to be 37 nM; in assay [2] it was 5820 nM.

In the case of `O=C(O)c1ccc(NC(=O)[C@H](Cc2ccccc2)c2ccc(-c3c(F)ccc(Cl)c3F)c[n+]2[O-])cc1` [Example 4, 4-({(2R)-2-[5-(3-chloro-2,6-difluorophenyl)-1-oxidopyridin-2-yl]-3-phenylpropanoyl}amino) benzoic acid], the IC50 in assay [1] was 3.63 nM; in assay [2] it was 18.2 nM.

As to `O=C(O)c1ccc(NC(=O)C(CC2CC2)c2ccc(-c3c(-n4cnnn4)ccc(Cl)c3F)c[n+]2[O-])cc1` (racemic) [Example 50, 4-[(2-{5-[3-chloro-2-fluoro-6-(1H-tetrazol-1-yl)phenyl]-1-oxidopyridin-2-yl}-3-cyclopropylpropanoyl)amino]benzoic acid], the IC50 in assay [1] worked out at 0.19 nM; in assay [2], 25.1 nM.

As for `COc1cc(C(Cc2ccccc2)C(=O)Nc2ccc(C(=O)O)cc2)[n+]([O-])cc1-c1cc(Cl)ccc1C#N` (single isomer, unassigned) [Example 24, 2-(1-((4-carboxyphenyl)amino)-1-oxo-3-phenyl-propan-2-yl)-5-(5-chloro-2-cyanophenyl)-4-methoxypyridine 1-oxide], the IC50 in assay [1] came to 0.29 nM; in assay [2], 0.7 nM.

As to `O=C(O)c1ccc(NC(=O)[C@@H](Cc2ccc(F)cc2)c2ccc(-c3cc(Cl)ccc3-n3cnnn3)c[n+]2[O-])cc1` [Example 7, 4-{[(2S)-2-{5-[5-chloro-2-(1H-tetrazol-1-yl)phenyl]-1-oxidopyridin-2-yl}-3-(4-fluorophenyl)propanoyl]amino}benzoic acid], the IC50 in assay [1] is 14.2 nM; in assay [2] it was 67.1 nM.

`Cc1cc(NC(=O)C(CC2CC2)c2ccc(-c3cc(Cl)ccc3-n3cnnn3)c[n+]2[O-])ccc1C(=O)O` (single isomer, unassigned) [Example 48, 4-[(2-{5-[5-chloro-2-(1H-tetrazol-1-yl)phenyl]-1-oxidopyridin-2-yl}-3-cyclopropylpropanoyl)amino]-2-methylbenzoic acid]: the IC50 in assay [1] was found to be 0.46 nM; in assay [2] it was 83.1 nM.

In the case of `O=C(O)c1ccc(NC(=O)C(CC2CC2)c2ccc(-c3cc(Cl)ccc3-n3cnnn3)c[n+]2[O-])cc1F` (single isomer, unassigned) [Example 45, 4-[(2-{5-[5-chloro-2-(1H-tetrazol-1-yl)phenyl]-1-oxidopyridin-2-yl}-3-cyclopropylpropanoyl)amino]-2-fluorobenzoic acid], the IC50 in assay [1] was 0.07 nM; in assay [2] it was 17.6 nM.

On to `Cc1cc(C(=O)O)ccc1NC(=O)C(CC1CC1)c1ccc(-c2cc(Cl)ccc2-n2cnnn2)c[n+]1[O-]` (single isomer, unassigned) [Example 47, 4-[(2-{5-[5-chloro-2-(1H-tetrazol-1-yl)phenyl]-1-oxidopyridin-2-yl}-3-cyclopropylpropanoyl)amino]-3-methylbenzoic acid], for which the IC50 in assay [1] came out at 15.1 nM; in assay [2] it was 2350 nM.

For `O=C(Nc1ccc2cn[nH]c2c1)C(Cc1ccccc1)c1ccc(-c2cc(Cl)ccc2-n2cnnn2)c[n+]1[O-]` (racemic) [Example 6, 2-{5-[5-chloro-2-(1H-tetrazol-1-yl)phenyl]-1-oxidopyridin-2-yl}-N-1H-indazol-6-yl-3-phenylpropanamide], the IC50 in assay [1] is 0.24 nM; in assay [2] it was 1.9 nM.

With `O=C(O)c1ccc(NC(=O)C(CC2CC2)c2ccc(-c3cc(Cl)ccc3OC(F)(F)F)c[n+]2[O-])cc1` (single isomer, unassigned) [Example 39, 4-[(2-{5-[5-chloro-2-(trifluoromethoxy)phenyl]-1-oxidopyridin-2-yl}-3-cyclopropylpropanoyl)amino]benzoic acid], the IC50 in assay [1] is 18.9 nM; in assay [2], 830 nM.

Turning to `N#Cc1ccc(Cl)c(F)c1-c1ccc(C(CC2CC2)C(=O)Nc2ccc(C(=O)O)cc2)[n+]([O-])c1` (single isomer, unassigned) [Example 30, 4-({2-[5-(3-chloro-6-cyano-2-fluorophenyl)-1-oxidopyridin-2-yl]-3-cyclopropylpropanoyl}amino)benzoic acid], the IC50 in assay [1] was 4.24 nM; in assay [2], 80.4 nM.

On to `O=C(O)c1ccc(NC(=O)[C@H](CC2CC2)c2ccc(-c3cc(Cl)ccc3-n3cnnn3)c[n+]2[O-])cc1` [Example 27, 4-{[(2R)-2-{5-[5-chloro-2-(1H-tetrazol-1-yl)phenyl]-1-oxidopyridin-2-yl}-3-cyclopropylpropanoyl]amino}benzoic acid], for which the values for the IC50 in assay [1] and in assay [2] were 0.14 nM and 23.8 nM, respectively.

As for `O=C(O)c1ccc(NC(=O)[C@H](Cc2ccc(F)cc2)c2ccc(-c3cc(Cl)ccc3-n3cnnn3)c[n+]2[O-])cc1` [Example 8, 4-{[(2R)-2-{5-[5-chloro-2-(1H-tetrazol-1-yl)phenyl]-1-oxidopyridin-2-yl}-3-(4-fluorophenyl)propanoyl]amino}benzoic acid], the figures for the IC50 in assay [1] and in assay [2] were 0.26 nM and 3.4 nM, respectively.

Consider `O=C(O)c1ccc(NC(=O)C(CC2CC2)c2ccc(-c3cc(Cl)ccc3-n3cc(CO)nn3)c[n+]2[O-])cc1` (racemic) [Example 42, 4-{[2-(5-{5-chloro-2-[4-(hydroxymethyl)-1H-1,2,3-triazol-1-yl]phenyl}-1-oxidopyridin-2-yl)-3-cyclopropylpropanoyl]amino}benzoic acid], for which the results for the IC50 in assay [1] and in assay [2] were 8.45 nM and 1610 nM, respectively.

For `O=C(O)c1ccc(NC(=O)C(CC2CC2)c2ccc(-c3cc(Cl)ccc3-c3cnco3)c[n+]2[O-])cc1` (single isomer, unassigned) [Example 35, 4-[(2-{5-[5-chloro-2-(1,3-oxazol-5-yl)phenyl]-1-oxidopyridin-2-yl}-3-cyclopropylpropanoyl)amino]benzoic acid], the IC50 came out at 5.65 nM in assay [1] and 408 nM in assay [2].

As to `O=C(O)c1ccc(NC(=O)C(CC2CC2)c2ccc(-c3cc(Cl)ccc3-n3cnnn3)c[n+]2[O-])cc1F` (single isomer, unassigned) [Example 44, 4-[(2-{5-[5-chloro-2-(1H-tetrazol-1-yl)phenyl]-1-oxidopyridin-2-yl}-3-cyclopropylpropanoyl)amino]-2-fluorobenzoic acid], the IC50 is 18 nM in assay [1] and 3260 nM in assay [2].

Consider `O=C(O)c1ccc(NC(=O)[C@H](Cc2ccccc2)c2ccc(-c3cc(Cl)ccc3-n3cnnn3)c[n+]2[O-])cc1` [Example 2, 4-{[(2R)-2-{5-[5-chloro-2-(1H-tetrazol-1-yl)phenyl]-1-oxidopyridin-2-yl}-3-phenylpropanoyl]amino} benzoic acid], for which the IC50 in assay [1] was determined as 0.16 nM; in assay [2], 1.2 nM.

As for `O=C(NC12CCC(C(=O)O)(CC1)CC2)C(Cc1ccccc1)c1ccc(-c2cc(Cl)ccc2-n2cnnn2)c[n+]1[O-]` (single isomer, unassigned) [Example 17, 4-[(2-{5-[5-chloro-2-(1H-tetrazol-1-yl)phenyl]-1-oxidopyridin-2-yl}-3-phenylpropanoyl)amino] bicyclo[2.2.2]octane-1-carboxylic acid], the figures for the IC50 in assay [1] and in assay [2] were 0.76 nM and 144 nM, respectively.

Turning to `O=C(O)c1ccc(NC(=O)C(CC2CC2)c2ccc(-c3cc(Cl)ccc3-n3cc(C(F)F)nn3)c[n+]2[O-])cc1` (racemic) [Example 41, 4-{[2-(5-{5-chloro-2-[4-(difluoromethyl)-1H-1,2,3-triazol-1-yl]phenyl}-1-oxidopyridin-2-yl)-3-cyclopropylpropanoyl]amino}benzoic acid], in assay [2], the IC50 stood at 363 nM.
